For experiment [1], the target named is Sigma non-opioid intracellular receptor 1 (Rattus norvegicus, UniProt Q9R0C9). Description: Displacement of [3H] (+)-pentazocine from sigma 1 receptor in rat liver homogenate. The class given is tissue-based.
The species named for experiment [2] is Rattus norvegicus. The experiment is described as follows: Displacement of [3H]DTH from sigma 2 receptor in rat liver homogenate at 100 nM in presence of (+)-pentazocine. The class given is tissue-based.
Experiment [3] can be described thus: Displacement of [3H]DTH from sigma 2 receptor in rat liver homogenate in presence of (+)-pentazocine. The class given is tissue-based.
Experiment [4] concerns the target Sigma non-opioid intracellular receptor 1 (Rattus norvegicus) (UniProt Q9R0C9). Description: Displacement of [3H] (+)-pentazocine from sigma 1 receptor in rat liver homogenate at 100 nM. Format: tissue-based.
For experiment [5], the species on record is Rattus norvegicus. Description: Selectivity ratio of Ki for rat sigma 1 receptor to Ki for rat sigma 2 receptor.

Chain of Sigma non-opioid intracellular receptor 1 (Rattus norvegicus) (Q9R0C9 whole entry): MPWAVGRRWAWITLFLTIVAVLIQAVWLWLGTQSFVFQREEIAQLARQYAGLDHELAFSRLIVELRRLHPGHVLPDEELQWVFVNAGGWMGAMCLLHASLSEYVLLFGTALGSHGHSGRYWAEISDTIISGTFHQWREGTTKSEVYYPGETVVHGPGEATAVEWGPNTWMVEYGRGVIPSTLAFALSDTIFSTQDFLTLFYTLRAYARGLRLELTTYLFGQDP
Chain of Sigma non-opioid intracellular receptor 1 (Q9R0C9 whole entry): as above

For the compound `CN(CCCCc1cn(-c2ccc(F)cc2)c2ccccc12)Cc1cccc(Cl)c1`, the Ki in experiment [1] worked out at 201 nM; in experiment [3], 25.6 nM. Moreover, the Activity in the experiment filed under Rattus norvegicus [2] worked out at 89%; in experiment [4], 22%. In the experiment listed under Rattus norvegicus [5], the Ratio Ki stood at 7.9.

With `Cc1ccc(CN(C)CCCc2cn(-c3ccc(F)cc3)c3ccccc23)cc1`, the Activity came out at 78% in the experiment filed under Rattus norvegicus [2] and 69% in experiment [4].

For the compound `Cc1cccc(CN(C)CCCCc2cn(-c3ccc(F)cc3)c3ccccc23)c1`, the Activity in the experiment listed under Rattus norvegicus [2] came out at 85%; in experiment [4] it was 51%.

As for `CN(CCCCc1cn(-c2ccc(F)cc2)c2ccccc12)Cc1ccccc1F`, the Activity was found to be 88% in the experiment listed under Rattus norvegicus [2] and 49% in experiment [4].

`CN(CCCc1cn(-c2ccc(F)cc2)c2ccccc12)Cc1ccc(Br)cc1`: the Activity in the experiment listed under Rattus norvegicus [2] amounted to 54%; in experiment [4] it was 71%.

Regarding `CN(CCCc1cn(-c2ccc(F)cc2)c2ccccc12)Cc1cccc(Br)c1`, the Activity was 62% in the experiment filed under Rattus norvegicus [2] and 40% in experiment [4].

For `CN(CCCc1cn(-c2ccc(F)cc2)c2ccccc12)Cc1cccc(Cl)c1`, the Ki in experiment [1] was determined as 98.9 nM; in experiment [3], 124 nM. For the same compound, the values for the Activity (in the experiment listed under Rattus norvegicus [2]; in experiment [4]) were 59% and 42%, respectively. The Ratio Ki in the experiment listed under Rattus norvegicus [5] was determined as 0.8.

As to `CN(CCCc1cn(-c2ccc(F)cc2)c2ccccc12)Cc1ccccc1Cl`, the Activity in the experiment listed under Rattus norvegicus [2] was found to be 40%; in experiment [4], 56%.

For `CN(CCCCc1cn(-c2ccc(F)cc2)c2ccccc12)Cc1ccccc1Cl`, the Activity is 87% in the experiment filed under Rattus norvegicus [2] and 58% in experiment [4].

As for `CN(CCCCc1cn(-c2ccc(F)cc2)c2ccccc12)Cc1ccc(Br)cc1`, the figures for the Activity (in the experiment listed under Rattus norvegicus [2]; in experiment [4]) were 84% and 70%, respectively.

Take `CN(CCCCc1cn(-c2ccc(F)cc2)c2ccccc12)Cc1cccc(Br)c1`: the Activity in the experiment filed under Rattus norvegicus [2] came out at 78%; in experiment [4], 28%.

In the case of `Cc1ccc(CN(C)CCCc2cn(-c3ccc(F)cc3)c3ccccc23)cc1C`, the results for the Ki in experiment [1] and in experiment [3] were 118 nM and 46.9 nM, respectively. For the same compound, the Activity was found to be 85% in the experiment listed under Rattus norvegicus [2] and 38% in experiment [4]. Also, in the experiment filed under Rattus norvegicus [5], the Ratio Ki was found to be 2.5.

As to `CN(CCCc1cn(-c2ccc(F)cc2)c2ccccc12)Cc1ccccc1Br`, the Activity came out at 43% in the experiment listed under Rattus norvegicus [2] and 41% in experiment [4].

In the case of `CN(CCCc1cn(-c2ccc(F)cc2)c2ccccc12)Cc1ccc(Cl)cc1`, the results for the Activity (in the experiment listed under Rattus norvegicus [2]; in experiment [4]) were 59% and 68%, respectively.

Take `CN(CCCCc1cn(-c2ccc(F)cc2)c2ccccc12)Cc1ccccc1`: the Ki in experiment [1] amounted to 43 nM; in experiment [3], 57.7 nM. The figures for the Activity (in the experiment filed under Rattus norvegicus [2]; in experiment [4]) were 68% and 76%, respectively. Besides, the Ratio Ki in the experiment listed under Rattus norvegicus [5] was determined as 0.76.

Turning to `CN(CCCCc1cn(-c2ccc(F)cc2)c2ccccc12)Cc1ccc(Cl)cc1`, the results for the Activity (in the experiment filed under Rattus norvegicus [2]; in experiment [4]) were 85% and 72%, respectively.

In the case of `COc1cccc2c1CCCC2CCCCN1CCN(C2CCCCC2)CC1` (stereo not drawn), in experiment [3], the Ki was found to be 0.34 nM.

On to `Fc1ccc(-n2cc(CCCCN3CCC4(CC3)OCc3ccccc34)c3ccccc32)cc1` [SIRAMESINE], for which the IC50 in experiment [3] amounted to 0.12 nM.

Consider `Cc1cccc(CN(C)CCCc2cn(-c3ccc(F)cc3)c3ccccc23)c1`, for which the Activity came out at 64% in the experiment listed under Rattus norvegicus [2] and 63% in experiment [4].

`CN(CCCCc1cn(-c2ccc(F)cc2)c2ccccc12)Cc1ccc(Cl)c(Cl)c1`: the Activity in the experiment filed under Rattus norvegicus [2] is 69%; in experiment [4] it was 10%.

Consider `CN(CCCc1cn(-c2ccc(F)cc2)c2ccccc12)Cc1ccc(Cl)c(Cl)c1`, for which the results for the Activity (in the experiment listed under Rattus norvegicus [2]; in experiment [4]) were 39% and 28%, respectively.

Turning to `CN(CCCc1cn(-c2ccc(F)cc2)c2ccccc12)Cc1ccccc1F`, the Activity in the experiment filed under Rattus norvegicus [2] came out at 46%; in experiment [4] it was 59%.

For the compound `Cc1ccc(CN(C)CCCCc2cn(-c3ccc(F)cc3)c3ccccc23)cc1C`, the Ki worked out at 20.8 nM in experiment [1] and 5.9 nM in experiment [3]. Moreover, the Activity is 93% in the experiment filed under Rattus norvegicus [2] and 37% in experiment [4]. In the experiment filed under Rattus norvegicus [5], the Ratio Ki stood at 0.05.

Consider `CN(CCCCc1cn(-c2ccc(F)cc2)c2ccccc12)Cc1ccccc1Br`, for which the Activity in the experiment filed under Rattus norvegicus [2] was 86%; in experiment [4] it was 46%.

`Cc1ccc(CN(C)CCCCc2cn(-c3ccc(F)cc3)c3ccccc23)cc1`: the Activity worked out at 87% in the experiment listed under Rattus norvegicus [2] and 71% in experiment [4].

Take `CN(CCCc1cn(-c2ccc(F)cc2)c2ccccc12)Cc1ccccc1`: the values for the Ki in experiment [1] and in experiment [3] were 20.8 nM and 444 nM, respectively. The Activity worked out at 27% in the experiment listed under Rattus norvegicus [2] and 78% in experiment [4]. In addition, in the experiment listed under Rattus norvegicus [5], the Ratio Ki is 0.05.

Values taken from ChEMBL document CHEMBL1158175, “Substituted benzylaminoalkylindoles with preference for the sigma2 binding site” (Eur J Med Chem, 2008).
